Assay results published in patent US8361970B2, “Growth factor binding molecules” (University of South Florida, priority 2000, dated 2013).
“And” between values parts separate entries of the source, which are not always exact repeats. Equal values may be shown once. Read-outs that look alike come from different tables or passages of the source. Positions of bridges follow the written chain, without caps; N, C: chain ends. Non-standard residues stand in square brackets, D forms with d. d2Nal = N[C@H](Cc1ccc2ccccc2c1)C(=O)O; dAbu = CC[C@@H](N)C(=O)O

Legend:
Format in all cases: cell-based
[1] = tested on: PDGF-stimulated PDGFR tyrosine phosphorylation; assay: Inhibition of PDGF-stimulated PDGFR tyrosine phosphorylation in NIH 3T3 cells (anti-phosphotyrosine Western blot); details: 5 min pretreatment, PDGF 10 ng/ml 10 min, read-out: (IC50) Inhibition PDGFR-Y-P
Procedure: Starved NIH 3T3 cells are pretreated with various growth factor binding agents (0-100 μM) for 5 min before stimulation with PDGF (10 ng/mL) for 10 min. The cells are then harvested and lysed, and the proteins from the lysates separated by SDS-PAGE and immunoblotted with an anti-phosphotyrosine antibody (4G10: Upstate Biotechnology, Lake Placid, N.Y.). The phosphotyrosine PDGF receptor bands are scanned, and the concentrations of growth factor binding molecules that inhibited the ability of PDGF to stimulate PDGFR tyrosine phosphorylation by 50% are determined.
(§1) Starved NIII 3T3 cells (PDGF-BB and PDGF-AA), NIH 3T3 cells overexpressing either EGFR (EGF) or Flk-1 (VEGF) are pre-treated with the indicated concentrations of GFB-111 for 5 minutes before 10 minutes of stimulation with PDGF-BB (10 ng/ml), PDGF-AA (10 ng/ml), EGF (100 ng/ml) and VEGF (50 ng/ml). Cell lysates are run on SDS-PAGE gels, then transferred to nitrocellulose and Western blotted with anti-phosphotyrosine (4G 10) or anti-phosphorylated Erk1/Erk2 (New England Biolabs).
A novel series of protein surface binding agents are prepared that bind PDGF and disrupt its signaling function. The molecules are composed of a central calix[4] arene scaffold to which is attached four peptide loop domains (FIG. 1). The peptide loop component is based on a cyclic hexapeptide in which two residues are replaced by a 3-aminomethylbenzoate dipeptide mimetic containing a 5-amino substituent for attachment to the scaffold. The resulting molecules (as shown in Table 1) contain a functionalized and variable surface approximately 500 Å^2 in area. Several peptide loop sequences are synthesized (Table 1) to provide molecular surfaces with negatively and positively charged as well as hydrophobic regions designed to bind to complementary areas on the target growth factor. To identify PDGF binding molecules from this library, a cell-based screening assay is developed with NIH 3T3 cells to detect molecules capable of blocking PDGF-BB-induced tyrosine autophosphorylation of the PDGF receptor. The ability of the identified molecules to bind PDGF-BB and inhibit interaction with its receptor is then confirmed biochemically. Starved NIH 3T3 cells are pretreated for 5 min with the synthetic molecules prior to stimulation with PDGF for 10 min. The effects of the molecules on PDGF-stimulated receptor tyrosine phosphorylation are determined by the antiphosphotyrosine Western blotting as described in Table 1. […] GFB-111 has four-fold symmetry containing 4 identical peptide loops with negative and hydrophobic residues, GlyAspGlyTyr (GDGY) (SEQ ID NO. 6), that are designed to be complementary to the PDGF surface involved in binding to PDGFR. The area of PDGF-BB that binds PDGFR is composed primarily of positive and hydrophobic residues.
Starved NIH 3T3 cells are pretreated with the various GFBs (0-100 μM) for 5 min. prior to stimulation with PDGF (10 ng/ml) for 10 min. The cells are then harvested lysed and the proteins from the lysates are separated by SDS-PAGE and immunoblotted with an anti-phosphotyrosine antibody (4G10, Upstate Biotechnology, Lake Placid, N.Y.). The phosphotyrosine PDGF receptor bands are scanned and the concentrations of GFBs that inhibit the ability of PDGF to stimulate PDGFR tyrosine phosphorylation by 50% are determined. Data for each compound is representative of at least two independent experiments. FIG. 1 illustrates the structure of growth factor binders. GFBs are synthesized as described by Park, H. D. et al., Protein surface recognition by synthetic receptors: A route to novel sub-micromolar inhibitors for chymotrypsin. J. Am. Chem. Soc. 121, 8-13 (1999); and Hamuro, Y. et al., A calixarene with four peptide loops: An antibody mimic for recognition of protein surfaces. Angew. Chemie Int. Ed. Engl. 36, 2680-2683 (1997), each herein incorporated by reference in its respective entirety.

[2] = tested on: PDGF-stimulated Erk1/Erk2 activation; assay: Inhibition of PDGF-stimulated activation of MAPK Erk1/Erk2 (p44/p42) in NIH 3T3 cells; details: NIH 3T3, PDGF stimulated
Procedure: as §1
(§2) In other experiments, starved NIH 3T3 cells (PDGF-AA, PDGF-BB, aFGF, bFGF), NIH 3T3 cells overexpressing EGFR. IGF-1R or Flk-1 and the human breast carcinoma SkBr3 that overexpresses ErbB2 (HRGβ) are pretreated with GFB-111 (100 μM) for 5 min before 10 min stimulation with the indicated growth factors at the concentrations shown above and aFGF (10 ng/ml), bFGF (50 ng/ml), IGF-1 (50 ng/ml) and HRGβ (10 ng/ml). Cell lysates are then immunoblotted with anti-phospho Erk1/Erk2 as described above.

[3] = tested on: VEGF-stimulated Flk-1 tyrosine phosphorylation; assay: Inhibition of VEGF-stimulated Flk-1 tyrosine phosphorylation in Flk-1/3T3 cells; details: Flk-1/3T3, VEGF stimulated; read-out: (IC50) Inhibition Flk-1-Y-P
Procedure: as §1
(§3) In order to identify molecules that would bind vascular endothelial growth factor (VEGF), Flk-1/3T3 cell-based assay is used that relies on VEGF-stimulation of its receptor, Flk-1, tyrosine phosphorylation and subsequent MAP-kinase activation. The assay used herein identical to that used for PDGF, except that NIH 3T3 cells that overexpress Flk-1 are used. GFB-116, which has four identical loops with the sequence GKGK (SEQ ID NO. 10) is shown to be very potent and selective toward blocking the ability of VEGF to stimulate Flk-1 tyrosine phosphorylation and subsequent MAP-kinase activation as measured by phospho erk-1 and erk-2 also referred to in the Table as p42 and p44 (Table 4A). A preferred embodiment of the invention is a compound that binds to a vascular endothelial growth factor, of the general structure III (above) in which R is n-butyl, n-propyl, or benzyl, and X comprise covalently attached identical cyclic peptide loops wherein R1, R2, R3, and R4 are each amino acid side chains, as broadly defined above, that define a tetrapeptide sequence, wherein said tetrapeptide is covalently attached at the amino and carboxy termini of said tetrapeptide to 3-aminomethyl-5-aminobenzamide linking group, and wherein said tetrapeptide sequence is GKGK (SEQ ID NO. 10), GDGY (SEQ ID NO. 6), or functionally related derivatives thereof.

[4] = tested on: VEGF-stimulated MAP kinase activation; assay: Inhibition of VEGF-stimulated MAP kinase (p42/p44, Erk2/Erk1) activation in Flk-1/3T3 cells; details: Flk-1/3T3, VEGF stimulated
Procedure: as §1, §2, §3

[5] = tested on: IGF-1 stimulated MAP kinase activation; assay: Inhibition of IGF-1 stimulated MAP kinase (p42/p44) activation in IGFR/3T3 cells; details: 100 μM; IGFR/3T3, IGF-1 stimulated
Procedure: as §2
(§4) The ability of the GFB library to block the ability of IGF-1 to stimulate the IFG-1 R tyrosine phosphorylation and MAP kinase activation is evaluated using the cell assay described above with IGF-1R/3T3 cells as target cell. […] A preferred embodiment of the invention is a compound that binds to an insulin-like growth factor-1, of the general structure III, wherein R is n-butyl, n-propyl, or benzyl, and X1, X2, X3, and X4 optionally comprise identical cyclic peptide loops of the general structure II, and wherein R1, R2, R3, and R4 are each amino acid side chains that define a tetrapeptide sequence, wherein said tetrapeptide is covalently attached at the amino and carboxy termini of said tetrapeptide to a 3-aminomethyl-5-aminobenzamide linking group.

[6] = tested on: IGF-1 stimulated IGF-1R tyrosine phosphorylation; assay: Inhibition of IGF-1 stimulated IGFR tyrosine phosphorylation in IGFR/3T3 cells; details: 100 μM; IGFR/3T3, IGF-1 stimulated
Procedure: as §4

[7] = head p42/Erk2 (p42 for GFB-132 to 137), read-out: (IC50) Inhibition p42/Erk2
[8] = read-out: (IC50) Inhibition p42
[9] = read-out: (IC50) Inhibition p44

Substance	IC50 [1]	IC50 [2, 7]	IC50 [3]	IC50 [4, 8]	IC50 [4, 9]	IC50 [2, 9]	% Inhibition at 100 μM p42 [5]	% Inhibition at 100 μM p44 [5]	% Inhibition at 100 μM IGF1R-Y-P [6]
GDAD [GFB-110]	1700 nM	7 µM	–	–	–	–	–	55.4% and 47.1%	40.9% and 32.4%
GDDD [GFB-129]	–	–	–	–	–	–	2.8%	33.4%	3.4%
GDDG [GFB-131]	–	–	–	–	–	–	−6.2%	20.0%	30.2%
GDDY [GFB-130]	–	–	–	–	–	–	−19.7%	−17.5%	22.7%
GDFD [GFB-102]	> 500000 nM	–	–	> 100 µM	> 100 µM	–	–	–	–
GDGD [GFB-103]	> 500000 nM	> 500 µM	–	–	–	–	–	–	–
GDGD [GFB-104]	> 500000 nM	> 500 µM	–	–	–	–	−0.19%	22.4%	−28.4%
GDGD [GFB-107]	2500 nM	10 µM	< 10 µM	–	–	–	57.3%	59.7%	–
GDLD [GFB-109]	7500 nM	15 µM	–	–	–	–	68.3%	79.7%	–
GDND [GFB-117]	5800 nM	36 µM	–	–	–	–	17.1%	61.5%	4.9%
GFGD [GFB-101]	> 500000 nM	> 500 µM	> 100 µM	> 100 µM	> 100 µM	–	–	–	–
GKGF [GFB-115]	> 50000 nM	> 50 µM	–	–	–	–	−12.4%	51.9%	−38.3%

Further lines, with some results ahead:

IC50 [1]	IC50 [2, 7]	IC50 [3]	IC50 [4, 8]	IC50 [4, 9]	IC50 [2, 9]	Substance	% Inhibition at 100 μM p42 [5]	% Inhibition at 100 μM p44 [5]	% Inhibition at 100 μM IGF1R-Y-P [6]
9000 nM	57 µM	10 µM	50 µM	50 µM	–	But-Calix scaffold with peptide loops 4-d-ADGD, (D-Ala)-Asp-Gly-Asp (SEQ ID NO. 3) ([dA]DGD; linker N-C via 3‑aminomethyl‑5‑aminobenzamide; also: peptide loops (4) attached to But-Calix scaffold) [GFB-108]	67.8%	80.1%	–
3000 nM	25 µM	–	–	–	24 µM	GDDD [GFB-136]	15.0%	–	40.6%
1300 nM	1.7 µM	–	–	–	–	GDDG [GFB-120]	68.1%	85.9%	35.4%
> 50000 nM	> 50 µM	–	–	–	–	GDDG [GFB-123]	26.7%	62.4%	24.2%
1700 nM	19 µM	–	–	–	–	GDDY [GFB-122]	33.6%	66.6%	38.4%
26000 nM	> 50 µM	–	–	–	–	GDGY [GFB-128]	−6.1%	38.2%	−12.0%
400 nM	2.9 µM	–	–	–	3 µM	GDGY [GFB-132]	11.0%	39.4%	30.2%
1900 nM	2.5 µM	–	–	–	2.6 µM	GDGY [GFB-134]	4.9%	53.5%	16.8%
1900 nM	3.2 µM	–	–	–	24 µM	GDGY [GFB-135]	0.8%	46.1%	16.2%
400 nM	2.9 µM	–	–	–	47 µM	GDGY [GFB-137]	5.9%	38.2%	36.0%
700 nM	1.2 µM	–	–	–	–	GFB-118: But-Calix scaffold with peptide loops 4-D-2-NalDGD (SEQ ID NO. 17) ([d2Nal]DGD; linker N-C via 3‑aminomethyl‑5‑aminobenzamide; also: four loops attached to But-Calix scaffold)	16.4%	55.2%	1.5%
5600 nM	8.5 µM	–	–	–	–	GFB-121: But-Calix scaffold with peptide loops 4-D-AbuDGD (SEQ ID NO. 18) ([dAbu]DGD; linker N-C via 3‑aminomethyl‑5‑aminobenzamide; also: four loops attached to But-Calix scaffold)	28.3%	62.1%	33.8%
20000 nM	32 µM	–	–	–	–	PDGD [GFB-119]	29.7%	66.2%	16.7%
